US20120027862A1, “Azelaic acid-comprising formulation with added pigment” (INTENDIS GMBH, priority 2010, published 2012)
Several values for one entry are separate records, joined by “and”; a condition that tells them apart may be missing. Equal entries are not always repeated.

Key:
Type in all cases: cell-based, human
[1] = test system: IL-1β; test: IL-1β in supernatants of UVB-irradiated HaCaT cells; settings: UVB 100 mJ irradiated, azelaic acid 20 mM, pigment 3%
Procedure: (§1) HaCaT cells originate from a spontaneously immortalized permanent human keratinocyte cell line established by long-term cultivation of adult human keratinocytes under reduced calcium concentration and elevated temperature (Boukamp et al. J Cell Biol 106:761-771, 1988). HaCaT cells were propagated in culture medium. This consists of 88 ml DMEM/Ham's F12 w/o glutamine, 10 ml foetal calf serum, 1 ml penicillin/streptomycin solution with 10,000 units/ml and 1 ml of glutamine. […] HaCaT cells were sown in 6-well or 12-well plates at a cell number of 3×10^5 and 1.5×10^5 cells/well, respectively. The cells were cultivated to about 80% confluence in culture medium. 2 h prior to the intended UV irradiation, the cells were incubated with the above-mentioned substances. Immediately before the irradiation, the cells were washed 2× with PBS and irradiated therein. Irradiation was with UVB (spectrum: 280-360 nM, max. 320 nM) in a Waldmann-UVB source UV7002 at 100 mJ. After the UV irradiation, the cells were irradiated in culture medium in the presence and absence of the abovementioned substances. The cultures were stopped 24 h or 48 h after the UVB irradiation, and the supernatant was removed and centrifuged to remove debris and titanium dioxide-coated potassium aluminium silicate. All cultures were set up in triplicate. The supernatants were frozen at -80° C. until further use. The protein concentration was determined using a commercial kit from Meso Scale Discovery, Gaithersburg, Md., USA. The test was carried out in accordance with the instructions of the manufacturer (www.mesoscale.com). […] The samples were then washed once more, 150 μl of read buffer were pipetted into the mixture and the electrochemiluminescence was measured in an MSD Sector plate reader. […] The following cell cultures were prepared: • unirradiated HaCaTs • irradiated HaCaTs (100 mJ) • irradiated HaCaTs (100 mJ) in the presence of azelaic acid, • irradiated HaCaTs (100 mJ) in the presence of azelaic acid and titanium dioxide-coated potassium aluminium silicate The following reagents were used to treat the cells: • azelaic acid, Fluka, batch S3317131508B29, 20 mM • titanium dioxide-coated potassium aluminium silicate, Merck Darmstadt, batch W08012807X, 3% The following cytokines/chemokines were analyzed: • IL-1β • IL-6 • TNF-α • VEGF • MCP-1=CCL2 HaCaT cells were cultivated in triplicates, irradiated with 100 mJ UVB and then cultivated in the presence or absence of azelaic acid and, if appropriate, titanium dioxide-coated potassium aluminium silicate or the combination thereof for 24 or 48 h. […] The cytokines IL-1β (A), IL-6 (B), TNFα (C), VEGF (D) and MCP-1/CCL2 (E) were measured in the supernatant in triplicate after 24 (series I) and 48 h (series II) using Mesoscale. […]

[2] = test system: HaCaT cells; test: Overall anti-inflammatory effect in UVB-irradiated skin cell cultures (HaCaT); settings: addition of azelaic acid
Procedure: HaCaT cells originate from a spontaneously immortalized permanent human keratinocyte cell line established by long-term cultivation of adult human keratinocytes under reduced calcium concentration and elevated temperature (Boukamp et al. J Cell Biol 106:761-771, 1988). HaCaT cells were propagated in culture medium. This consists of 88 ml DMEM/Ham's F12 w/o glutamine, 10 ml foetal calf serum, 1 ml penicillin/streptomycin solution with 10,000 units/ml and 1 ml of glutamine. […] HaCaT cells were sown in 6-well or 12-well plates at a cell number of 3×10^5 and 1.5×10^5 cells/well, respectively. The cells were cultivated to about 80% confluence in culture medium. 2 h prior to the intended UV irradiation, the cells were incubated with the above-mentioned substances. Immediately before the irradiation, the cells were washed 2× with PBS and irradiated therein. […] The protein concentration was determined using a commercial kit from Meso Scale Discovery, Gaithersburg, Md., USA. […] The samples were then washed once more, 150 μl of read buffer were pipetted into the mixture and the electrochemiluminescence was measured in an MSD Sector plate reader. […] The cytokines IL-1β (A), IL-6 (B), TNFα (C), VEGF (D) and MCP-1/CCL2 (E) were measured in the supernatant in triplicate after 24 (series I) and 48 h (series II) using Mesoscale. […]

[3] = test system: TNF-α; test: TNF-α in supernatants of UVB-irradiated HaCaT cells; settings: UVB 100 mJ irradiated, azelaic acid 20 mM, pigment 3%
Procedure: (§2) HaCaT cells originate from a spontaneously immortalized permanent human keratinocyte cell line established by long-term cultivation of adult human keratinocytes under reduced calcium concentration and elevated temperature (Boukamp et al. J Cell Biol 106:761-771, 1988). HaCaT cells were propagated in culture medium. This consists of 88 ml DMEM/Ham's F12 w/o glutamine, 10 ml foetal calf serum, 1 ml penicillin/streptomycin solution with 10,000 units/ml and 1 ml of glutamine. […] HaCaT cells were sown in 6-well or 12-well plates at a cell number of 3×10^5 and 1.5×10^5 cells/well, respectively. The cells were cultivated to about 80% confluence in culture medium. 2 h prior to the intended UV irradiation, the cells were incubated with the above-mentioned substances. Immediately before the irradiation, the cells were washed 2× with PBS and irradiated therein. Irradiation was with UVB (spectrum: 280-360 nM, max. 320 nM) in a Waldmann-UVB source UV7002 at 100 mJ. […] The protein concentration was determined using a commercial kit from Meso Scale Discovery, Gaithersburg, Md., USA. […] The samples were then washed once more, 150 μl of read buffer were pipetted into the mixture and the electrochemiluminescence was measured in an MSD Sector plate reader. […] The following cell cultures were prepared: • unirradiated HaCaTs • irradiated HaCaTs (100 mJ) • irradiated HaCaTs (100 mJ) in the presence of azelaic acid, • irradiated HaCaTs (100 mJ) in the presence of azelaic acid and titanium dioxide-coated potassium aluminium silicate The following reagents were used to treat the cells: • azelaic acid, Fluka, batch S3317131508B29, 20 mM • titanium dioxide-coated potassium aluminium silicate, Merck Darmstadt, batch W08012807X, 3% The following cytokines/chemokines were analyzed: • IL-1β • IL-6 • TNF-α • VEGF • MCP-1=CCL2 HaCaT cells were cultivated in triplicates, irradiated with 100 mJ UVB and then cultivated in the presence or absence of azelaic acid and, if appropriate, titanium dioxide-coated potassium aluminium silicate or the combination thereof for 24 or 48 h. […]

[4] = test system: IL-6; test: IL-6 in supernatants of UVB-irradiated HaCaT cells; settings: UVB 100 mJ irradiated, azelaic acid 20 mM, pigment 3%
Procedure: as §2

[5] = test system: VEGF; test: VEGF in supernatants of UVB-irradiated HaCaT cells
Procedure: HaCaT cells originate from a spontaneously immortalized permanent human keratinocyte cell line established by long-term cultivation of adult human keratinocytes under reduced calcium concentration and elevated temperature (Boukamp et al. J Cell Biol 106:761-771, 1988). HaCaT cells were propagated in culture medium. This consists of 88 ml DMEM/Ham's F12 w/o glutamine, 10 ml foetal calf serum, 1 ml penicillin/streptomycin solution with 10,000 units/ml and 1 ml of glutamine. […] HaCaT cells were sown in 6-well or 12-well plates at a cell number of 3×10^5 and 1.5×10^5 cells/well, respectively. The cells were cultivated to about 80% confluence in culture medium. 2 h prior to the intended UV irradiation, the cells were incubated with the above-mentioned substances. Immediately before the irradiation, the cells were washed 2× with PBS and irradiated therein. Irradiation was with UVB (spectrum: 280-360 nM, max. 320 nM) in a Waldmann-UVB source UV7002 at 100 mJ. After the UV irradiation, the cells were irradiated in culture medium in the presence and absence of the abovementioned substances. The cultures were stopped 24 h or 48 h after the UVB irradiation, and the supernatant was removed and centrifuged to remove debris and titanium dioxide-coated potassium aluminium silicate. All cultures were set up in triplicate. The supernatants were frozen at -80° C. until further use. The protein concentration was determined using a commercial kit from Meso Scale Discovery, Gaithersburg, Md., USA. The test was carried out in accordance with the instructions of the manufacturer (www.mesoscale.com). After addition of the blocking solution to the plates precoated with scavenger antibodies, the samples were incubated for 1 h and then washed. […] After this time, the detection antibody was added for 1 h. The samples were then washed once more, 150 μl of read buffer were pipetted into the mixture and the electrochemiluminescence was measured in an MSD Sector plate reader. […] The following cell cultures were prepared: • unirradiated HaCaTs • irradiated HaCaTs (100 mJ) • irradiated HaCaTs (100 mJ) in the presence of azelaic acid, • irradiated HaCaTs (100 mJ) in the presence of azelaic acid and titanium dioxide-coated potassium aluminium silicate The following reagents were used to treat the cells: • azelaic acid, Fluka, batch S3317131508B29, 20 mM • titanium dioxide-coated potassium aluminium silicate, Merck Darmstadt, batch W08012807X, 3% The following cytokines/chemokines were analyzed: • IL-1β • IL-6 • TNF-α • VEGF • MCP-1=CCL2 HaCaT cells were cultivated in triplicates, irradiated with 100 mJ UVB and then cultivated in the presence or absence of azelaic acid and, if appropriate, titanium dioxide-coated potassium aluminium silicate or the combination thereof for 24 or 48 h. The supernatants were then used to measure proinflammatory cytokines. The cytokines IL-1β (A), IL-6 (B), TNFα (C), VEGF (D) and MCP-1/CCL2 (E) were measured in the supernatant in triplicate after 24 (series I) and 48 h (series II) using Mesoscale. What is shown are the mean values and also the respective individual values of the protein determinations.

[6] = test system: MCP-1; test: MCP-1/CCL2 in supernatants of UVB-irradiated HaCaT cells; settings: UVB 100 mJ irradiated, azelaic acid 20 mM, pigment 3%
Procedure: as §1

Structure (SMILES): O=C(O)CCCCCCCC(=O)O [Azelaic acid, azelaic acid]
- IL-1β in HACaT cell supernatants after 24 h, mean ([1]; 24 h, mean n = 3): 5.8 pg/L
- IL-1β in HACaT cell supernatants after 24 h, individual values #1-#3 ([1]; 24 h, single cultures): 3.1 pg/l (2×) and 11.3 pg/l
- IL-1β in HACaT cell supernatants after 48 h, mean ([1]; 48 h, mean n = 3): 10.4 pg/L
- IL-1β in HACaT cell supernatants after 48 h, individual values #1-#3 ([1]; 48 h, single cultures): 7.2 pg/mL and 14.3 pg/mL and 9.7 pg/mL
- induction of the inflammatory cytokines (IL-1β, IL-6, TNF-α) after irradiation of keratinocytes [2]: can be reduced
- TNF-α in HACaT cell supernatants after 24 h, mean ([3]; 24 h, mean n = 3): 7.2 pg/L
- TNF-α in HACaT cell supernatants after 24 h, individual values #1-#3 ([3]; 24 h, single cultures): 7.6 pg/L and 21.63 pg/L and 6.7 pg/L
- TNF-α in HACaT cell supernatants after 48 h, mean ([3]; 48 h, mean n = 3): 30.0 pg/L
- IL-6 in HACaT cell supernatants after 24 h, mean ([4]; 24 h, mean n = 3): 44.3 pg/L
- IL-6 in HACaT cell supernatants after 24 h, individual values #1-#3 ([4]; 24 h, single cultures): 24.7 pg/L and 70.9 pg/L and 37.4 pg/L
- IL-6 in HACaT cell supernatants after 48 h, mean ([4]; 48 h, mean n = 3): 120.7 pg/L
- VGEF in HACaT cell supernatants after 24 h, mean ([5]; UVB 100 mJ irradiated, 24 h, azelaic acid 20 mM, pigment 3%, mean n = 3): 692.4 pg/L
- VGEF in HACaT cell supernatants after 24 h, individual values #1-#3 ([5]; UVB 100 mJ irradiated, 24 h, azelaic acid 20 mM, pigment 3%, single cultures): 633.4 pg/L and 1694.59 pg/L and 751.4 pg/L
- VGEF in HACaT cell supernatants after 48 h, mean ([5]; UVB 100 mJ irradiated, 48 h, azelaic acid 20 mM, pigment 3%, mean n = 3): 3999.0 pg/L
- VGEF in HACaT cell supernatants after 48 h, individual values #1-#3 ([5]; UVB 100 mJ irradiated, 48 h, azelaic acid 20 mM, pigment 3%, single cultures): 2950 pg/mL and 5810 pg/mL and 3240 pg/mL
- effect on the endothelial growth factor VEGF ([5]; keratinocytes, azelaic acid alone): leads to a reduction
- MCP-1 in HACaT cell supernatants after 24 h, mean ([6]; 24 h, mean n = 3): 683.2 pg/L
- MCP-1 in HACaT cell supernatants after 24 h, individual values #1-#3 ([6]; 24 h, single cultures): 520.8 pg/L and 908.9 pg/L and 619.9 pg/L
- MCP-1 in HACaT cell supernatants after 48 h, mean ([6]; 48 h, mean n = 3): 1190.1 pg/L
- MCP-1 in HACaT cell supernatants after 48 h, individual values #1-#3 ([6]; 48 h, single cultures): 1116.1 pg/L and 1279.9 pg/L and 1174.3 pg/L
